Measurements from ChEMBL document CHEMBL5252515, “Discovery of 6-Amino-2-{[(1S)-1-methylbutyl]oxy}-9-[5-(1-piperidinyl)pentyl]-7,9-dihydro-8H-purin-8-one (GSK2245035), a Highly Potent and Selective Intranasal Toll-Like Receptor 7 Agonist for the Treatment of Asthma” (J Med Chem, 2016).

What was measured:
Format in all cases: cell-based
Toll-like receptor 7 [1] = target: T1, Toll-like receptor 7 (Homo sapiens, UniProt Q9NYK1); test: Agonist activity at TLR7 in cryopreserved human PBMC assessed as IFN-alpha production after 24 hrs by MSD assay
T1 sequence (Q9NYK1 whole entry): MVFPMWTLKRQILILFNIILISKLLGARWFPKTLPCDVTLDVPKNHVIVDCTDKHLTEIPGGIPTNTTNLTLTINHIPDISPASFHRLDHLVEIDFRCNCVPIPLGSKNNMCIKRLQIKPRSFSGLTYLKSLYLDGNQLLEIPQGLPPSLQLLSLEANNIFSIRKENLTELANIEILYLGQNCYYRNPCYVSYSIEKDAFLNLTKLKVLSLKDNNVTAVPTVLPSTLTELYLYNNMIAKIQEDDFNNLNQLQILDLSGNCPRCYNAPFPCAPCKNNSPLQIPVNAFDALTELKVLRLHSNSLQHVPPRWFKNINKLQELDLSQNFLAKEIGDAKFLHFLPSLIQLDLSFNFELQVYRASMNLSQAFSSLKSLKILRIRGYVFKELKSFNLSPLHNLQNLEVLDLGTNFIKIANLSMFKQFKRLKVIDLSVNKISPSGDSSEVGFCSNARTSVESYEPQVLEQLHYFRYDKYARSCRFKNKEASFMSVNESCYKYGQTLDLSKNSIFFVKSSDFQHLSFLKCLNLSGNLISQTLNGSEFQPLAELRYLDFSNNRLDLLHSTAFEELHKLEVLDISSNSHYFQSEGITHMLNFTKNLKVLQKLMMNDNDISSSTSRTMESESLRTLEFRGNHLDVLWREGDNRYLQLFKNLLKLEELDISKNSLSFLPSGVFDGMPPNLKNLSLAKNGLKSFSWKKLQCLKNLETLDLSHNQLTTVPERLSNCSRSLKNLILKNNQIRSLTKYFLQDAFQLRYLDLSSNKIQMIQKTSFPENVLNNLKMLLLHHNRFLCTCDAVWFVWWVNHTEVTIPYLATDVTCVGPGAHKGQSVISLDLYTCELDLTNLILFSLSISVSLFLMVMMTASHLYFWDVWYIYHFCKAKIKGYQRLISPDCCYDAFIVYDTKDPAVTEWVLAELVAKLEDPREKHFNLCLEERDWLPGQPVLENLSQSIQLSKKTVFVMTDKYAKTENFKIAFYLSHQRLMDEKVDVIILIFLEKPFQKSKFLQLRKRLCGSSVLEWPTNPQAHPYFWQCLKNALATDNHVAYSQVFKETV

Toll-like receptor 7 [2] = target: T1, Toll-like receptor 7; test: Agonist activity at TLR7 in human PBMC assessed as IFN-alpha production after 24 hrs by electrochemiluminescence assay
Toll-like receptor 7 [3] = target: T1, Toll-like receptor 7; test: Agonist activity at TLR7 in human PBMC assessed as TNF-alpha production after 24 hrs by electrochemiluminescence assay

| Compound | EC50 (Toll-like receptor 7 [1]) [nM] | EC50 (Toll-like receptor 7 [2]) [nM] | EC50 (Toll-like receptor 7 [3]) [nM] |
| --- | --- | --- | --- |
| CCCCOc1nc(N)c2nc(O)n(Cc3ccccc3)c2n1 | 126 |  |  |
| CCCCOc1nc(N)c2[nH]c(=O)n(CCCCCCC3CCOCC3)c2n1 | 794 |  |  |
| CC(C)Oc1nc(N)c2[nH]c(=O)n(CCCCCN3CCCCC3)c2n1 |  | 1 | 12600 |
| CCCCOc1nc(N)c2[nH]c(=O)n(CCCC3CCOCC3)c2n1 | 63.1 |  |  |
| CCCCOc1nc(N)c2[nH]c(=O)n(CCCCC3CCCCO3)c2n1 (stereo not given) | 316 |  |  |
| CCCCOc1nc(N)c2[nH]c(=O)n(CCCCCC3CCOCC3)c2n1 | 50.1 |  |  |
| CCCCOc1nc(N)c2[nH]c(=O)n(CC3CCOCC3)c2n1 | 200 |  |  |
| CCCCOc1nc(N)c2[nH]c(=O)n(CCCCC3CCCO3)c2n1 (stereo not given) | 158 |  |  |
| CCCCOc1nc(N)c2[nH]c(=O)n(CCCCCN3CCCCC3)c2n1 |  | 7.94 | 5010 |
| CCCCOc1nc(N)c2[nH]c(=O)n(CCCCC3CCOCC3)c2n1 | 100 |  |  |
| CCCCOc1nc(N)c2[nH]c(=O)n(CCC3CCOCC3)c2n1 | 200 |  |  |
| CCCCOc1nc(N)c2[nH]c(=O)n(CCCCC3CCCOC3)c2n1 (stereo not given) | 39.8 |  |  |
| CCCCOc1nc(N)c2[nH]c(=O)n(CCCCC3CCN(C(C)C)CC3)c2n1 |  | 0.794 | 6310 |
| CCCCOc1nc(N)c2[nH]c(=O)n(CCCCN3CCCCC3)c2n1 |  | 6.31 | 6310 |
| CCC[C@H](C)Oc1nc(N)c2[nH]c(=O)n(CCCCC3CCOCC3)c2n1 |  | 39.8 | 126 |
| CC[C@H](C)Oc1nc(N)c2[nH]c(=O)n(CCCCCN3CCCCC3)c2n1 |  | 0.501 | 10000 |
| CCCCOc1nc(N)c2[nH]c(=O)n(CCCCCCN3CCCCC3)c2n1 |  | 1.58 | 2000 |
| Nc1nc(OC2CCCC2)nc2c1[nH]c(=O)n2CCCCN1CCCCC1 |  | 1000 | 12600 |
| CCCCOc1nc(N)c2[nH]c(=O)n(CCCCC3CCNCC3)c2n1 |  | 0.631 | 631 |
| CCCCOc1nc(N)c2[nH]c(=O)n(CCCCC3CCCNC3)c2n1 (stereo not given) |  | 2.51 | 1000 |
| CCCCOc1nc(N)c2[nH]c(=O)n(CCCCN3CCOCC3)c2n1 |  | 200 | 3980 |
| CCCCOc1nc(N)c2[nH]c(=O)n(CCCCN3CCCC3)c2n1 |  | 20 | 15800 |
| CCCCOc1nc(N)c2[nH]c(=O)n(CCCCN3CCN(C(C)C)CC3)c2n1 |  | 2.51 | 6310 |
| CCCC[C@H](C)Oc1nc(N)c2[nH]c(=O)n(CCCCN3CCCCC3)c2n1 |  | 0.631 | 2510 |
| CCCCOc1nc(N)c2[nH]c(=O)n(CCN3CCCCC3)c2n1 | 2510 |  |  |
| CCCCOc1nc(N)c2nc(O)n(CCCN3CCCCC3)c2n1 | 316 |  |  |
| CCC[C@H](C)Oc1nc(N)c2[nH]c(=O)n(CCCCN3CCCCC3)c2n1 |  | 0.794 | 2510 |
| CCCCOc1nc(N)c2[nH]c(=O)n(CCCCC3CCOC3)c2n1 (stereo not given) | 63.1 |  |  |
| CCCCOc1nc(N)c2[nH]c(=O)n(CCCCN3CCCCCC3)c2n1 |  | 1.58 | 6310 |
